Values joined by “and” are separate entries in the source; they are usually repeats but may differ in a detail not shown here. Equal entries are not always repeated.
How the values were obtained:
[1] = test system: Pancreatic Adenocarcinoma 03; test: Evaluation against early stage Pancreatic Adenocarcinoma 03 in BDF1 male mice (Table 1); format: in vivo, mouse; conditions: Cage 8; IV; QD 3–5; total 180 mg/kg
[2] = IV; total dose; cited from earlier work
[3] = test system: Mammary Adenocarcinoma 17/ADR; test: Evaluation against early stage Mammary Adenocarcinoma 17/ADR, C3H/He females (Table 3); format: in vivo; conditions: Cage 4; IV; 56 mg/kg/injection QD-1–5 and 10; total 336 mg/kg
[4] = test system: Pancreatic Ductal Adenocarcinoma 03; test: Evaluation against early stage Pancreatic Ductal Adenocarcinoma 03 in female BDF1 mice (Table 4); format: in vivo, mouse; conditions: IV
From the text: The higher dose requirement for compound 14e may be a disadvantage over compound 11b (Cage 14).

[5] = test system: Pancreatic Ductal Adenocarcinoma #03; test: Evaluation against early stage Pancreatic Ductal Adenocarcinoma #03, BD1 female mice (Table 2); conditions: Cage 2; IV; QD3–6, 10; total 300 mg/kg
[6] = Cage 5, 57 mg/kg/injection QD 3–9, total 399 mg/kg
[7] = Cage 6, 38 mg/kg/injection QD 3–9, total 266 mg/kg

CC(Oc1ccc(Oc2cnc3ccc(Cl)cc3n2)cc1)C(=O)O (racemic) [XK469, reference compound]
Day of Wt. Loss Nadir [1]: 8 days | Drug Deaths (days of death) [1]: no drug deaths and 0/5 | Log Kill [1]: 1.43 and 1.4 | Mean Body Wt. Loss in g/mouse [1]: −3.6 g/mouse | Median tumor burden in mg on day 14 (range) [1]: 189 mg | Percent Body Wt. Loss [1]: −15.5% | T-C [1]: 9 days | T/C % [1]: 11% | Time to 1000 mg days (range) [1]: 20 days | Tumor Free on day 21 [1]: 0/5 | day of body weight recovery [1]: 13 days | MTD (historical) [2]: 450 to 480 mg/kg | % Body Wt Loss at Nadir [3]: −7.1% | % T/C mass [3]: 9% | Activity Rating [3]: ++++ (Highly active >2.8) | Day of Nadir [3]: 8 days | Drug Deaths [3]: 0/5 | Growth Delay [3]: 15.5 days | Log Kill [3]: 4.2 | Median Tumor Mass on Day 9 (Range) [3]: 108 | Tumor Free day-21 [3]: 0/5 | % Body Wt Loss at Nadir [4, 6]: −6.7% | % T/C mass [4, 6]: 4.1% | Activity Rating [4, 6]: ++ (1.3–1.9) | Day of Nadir [4, 6]: 8 days | Drug Deaths [4, 6]: 0/5 | Growth Delay [4, 6]: 11.5 days | Log Kill [4, 6]: 1.7 | Median Tumor Mass on Day 14 (Range) [4, 6]: 63 | Tumor Free day-37 [4, 6]: 0/5 | % Body Wt Loss at Nadir [4, 7]: −6.7% | % T/C mass [4, 7]: 8.3% | Activity Rating [4, 7]: ++ (1.3–1.9) | Day of Nadir [4, 7]: 5 days | Drug Deaths [4, 7]: 0/5 | Growth Delay [4, 7]: 9.5 days | Log Kill [4, 7]: 1.4 | Median Tumor Mass on Day 14 (Range) [4, 7]: 126 | Tumor Free day-37 [4, 7]: 0/5 | Activity Rating [5]: ++++ (Highly active >2.8) | Day of Wt. Loss Nadir [5]: 8 days | Drug Deaths (day of death) [5]: 0/5 | Growth Delay [5]: 28.1 days | Log Cell Kill [5]: 3.3 | Mean Body Wt. Loss (g/mouse) [5]: −3.2 g/mouse | Median Tumor Burden in mg on d18 (Range) [5]: 64 mg | T/C % [5]: 4% | Time in days to 1000 mg (range) [5]: 41.1 days | Tumor Free on d 154 [5]: 1/5 | day of full body weight recovery [5]: ~12 days

— patent US7109341B2, “Therapeutic amides” (Wayne State University, priority 2002, dated 2006)
